According to PubChem BioAssay AID248 (DTP/NCI, 2004):
Where “and” joins values, the source holds several entries; their conditions need not be identical. Equal values may be shown once. Toxic doses and inconclusive results are not listed. Cut-off read from the data, not from the text of the source: active = T/C of 150% or more; inactive = T/C below 125%.

System: L1210 leukemia ip in BDF1 mice, survival T/C
Assay: NCI In Vivo Anticancer Drug Screen. Data for tumor model L1210 Leukemia (intraperitoneal) in B6D2F1 (BDF1) mice
Details: endpoint: mean survival time, higher = longer survival
Outline: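 Transplantable tumor model; survival measured in treated vs vehicle control mice. Value = treated/control.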

Measured: T/C

CCC1(O)CC(OC2CC(N(C)C)C(OC3CC4OC5CC(=O)C(C)OC5OC4C(C)O3)C(C)O2)c2c(cc3c(c2O)C(=O)c2c(O)ccc(O)c2C3=O)C1C(=O)OC (configuration not stated)
inactive: dose: 0.01 mg/kg/injection, schedule: Q01DX Z (ip), vehicle: saline 108 % of control and 88 % of control | dose: 0.16 mg/kg/injection, schedule: Q01DX Z (ip), vehicle: saline 98 % of control and 88 % of control | dose: 0.18 mg/kg/injection, schedule: Q03HX008 (ip), vehicle: saline with Tween-80 94 % of control and 90 % of control | dose: 0.18 mg/kg/injection, schedule: Q03HX024 (ip), vehicle: saline with Tween-80 93 % of control and 102 % of control | dose: 0.25 mg/kg/injection, schedule: Q01DX Z (ip), vehicle: other 103 % of control | dose: 0.25 mg/kg/injection, schedule: Q01DX Z (ip), vehicle: saline 94 % of control and 105 % of control | dose: 0.37 mg/kg/injection, schedule: Q03HX008 (ip), vehicle: saline with Tween-80 94 % of control and 100 % of control | dose: 0.37 mg/kg/injection, schedule: Q03HX024 (ip), vehicle: saline with Tween-80 99 % of control and 102 % of control | dose: 0.5 mg/kg/injection, schedule: Q01DX Z (ip), vehicle: other 112 % of control | dose: 0.5 mg/kg/injection, schedule: Q01DX Z (ip), vehicle: saline 113 % of control and 120 % of control | dose: 0.75 mg/kg/injection, schedule: Q01DX009 (ip), vehicle: saline with Tween-80 98 % of control | dose: 0.75 mg/kg/injection, schedule: Q03HX008 (ip), vehicle: saline with Tween-80 105 % of control and 109 % of control | dose: 0.75 mg/kg/injection, schedule: Q03HX024 (ip), vehicle: saline with Tween-80 105 % of control and 107 % of control | dose: 1.0 mg/kg/injection, schedule: Q01DX015 (ip), vehicle: saline 123 % of control | dose: 1.0 mg/kg/injection, schedule: Q01DX Z (ip), vehicle: other 123 % of control | dose: 1.1 mg/kg/injection, schedule: Q04DX003 (ip), vehicle: saline 107 % of control | dose: 1.25 mg/kg/injection, schedule: Q04DX003 (ip), vehicle: saline 106 % of control | dose: 1.5 mg/kg/injection, schedule: Q01DX001 (ip), vehicle: saline with Tween-80 93 % of control and 95 % of control | dose: 1.5 mg/kg/injection, schedule: Q01DX009 (ip), vehicle: saline with Tween-80 111 % of control | dose: 1.5 mg/kg/injection, schedule: Q01DX Z (ip), vehicle: other 120 % of control | dose: 1.5 mg/kg/injection, schedule: Q03HX008 (ip), vehicle: saline with Tween-80 114 % of control | dose: 1.5 mg/kg/injection, schedule: Q03HX024 (ip), vehicle: saline with Tween-80 98 % of control and 106 % of control | dose: 1.5 mg/kg/injection, schedule: Q04DX003 (ip), vehicle: saline with Tween-80 102 % of control and 105 % of control | dose: 1.7 mg/kg/injection, schedule: Q04DX003 (ip), vehicle: saline 110 % of control | dose: 1.8 mg/kg/injection, schedule: Q01DX015 (ip), vehicle: saline 91 % of control | dose: 2.0 mg/kg/injection, schedule: Q01DX Z (ip), vehicle: other 116 % of control | dose: 2.5 mg/kg/injection, schedule: Q04DX003 (ip), vehicle: saline 111 % of control | dose: 2.6 mg/kg/injection, schedule: Q04DX003 (ip), vehicle: saline 110 % of control | dose: 2.7 mg/kg/injection, schedule: Q01DX001 (ip), vehicle: saline 104 % of control and 120 % of control | dose: 3.0 mg/kg/injection, schedule: Q01DX001 (ip), vehicle: saline with Tween-80 93 % of control and 99 % of control | dose: 3.0 mg/kg/injection, schedule: Q01DX009 (ip), vehicle: saline with Tween-80 100 % of control | dose: 3.0 mg/kg/injection, schedule: Q04DX003 (ip), vehicle: saline with Tween-80 107 % of control and 108 % of control | dose: 4.0 mg/kg/injection, schedule: Q01DX001 (ip), vehicle: saline 114 % of control | dose: 4.0 mg/kg/injection, schedule: Q04DX003 (ip), vehicle: saline 124 % of control | dose: 6.0 mg/kg/injection, schedule: Q01DX001 (ip), vehicle: saline with Tween-80 99 % of control and 106 % of control | dose: 6.0 mg/kg/injection, schedule: Q01DX001 (ip), vehicle: saline 119 % of control | dose: 6.0 mg/kg/injection, schedule: Q04DX003 (ip), vehicle: saline with Tween-80 113 % of control and 115 % of control and 117 % of control | dose: 9.0 mg/kg/injection, schedule: Q01DX001 (ip), vehicle: saline 110 % of control | dose: 9.0 mg/kg/injection, schedule: Q04DX003 (ip), vehicle: saline with Tween-80 97 % of control | dose: 10.0 mg/kg/injection, schedule: Q04DX003 (ip), vehicle: saline 87 % of control | dose: 12.0 mg/kg/injection, schedule: Q01DX001 (ip), vehicle: saline with Tween-80 110 % of control and 122 % of control | dose: 12.0 mg/kg/injection, schedule: Q04DX003 (ip), vehicle: saline with Tween-80 105 % of control
